The numbers were not newly measured in US20150082465A1, “System and Method for Whole-Animal High-Throughput Compound Screening” (System959, LLC, priority 2013, published 2015), which cites them from elsewhere.

The series deals with C. elegans. As to conditions: by antagonizing egl-19, an L-type calcium channel.

Consider `CCOC(=O)C1=C(C)NC(C)=C(C(=O)OCC)C1c1c(F)c(F)c(F)c(F)c1F` [Nemadipine], for which the “growth of C. elegans” value is listed as “inhibit the growth”.
